What all share (format): functional, cell-based
One test deals with D-566MG. Kind of test: cells. The note with it: Homo sapiens.
The subject of the next test is NCI-H1048. As to the kind of experiment: cells. The following applies: Homo sapiens.
For another test, the system named is NCI-H2291. As to the kind of experiment: cells. The following applies: Homo sapiens.
In another test the test system is ZR-75-30. As to the kind of experiment: cells. The note with it: Homo sapiens.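 Further: growth inhibition of ZR-75-30 cells, measured with a cell viability readout.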
In the next test the test system is A549. Kind of test: cells. The following applies: Homo sapiens.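 Further: growth inhibition of A549 cells, read out with a cell viability assay.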
For another test, the system named is NBsusSR. Kind of test: cells. The following applies: Homo sapiens.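 Further: growth inhibition of the human cell line, read out with a cell viability assay.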
A further test deals with SW900. Kind of test: cells. The note with it: Homo sapiens.
In a further test the test system is ECC10. As to the kind of experiment: cells. The note with it: Homo sapiens.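 Further: growth inhibition of ECC10 cells, read out by a cell viability assay.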
The subject of the next test is BT-549. Kind of test: cells. The following applies: Homo sapiens.
The next test concerns SW 1116. As to the kind of experiment: cells. The note with it: Homo sapiens.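 Further: growth inhibition of SW1116 cells, read out with a cell viability assay.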
The next test deals with NCI-H2029. Kind of test: cells. The following applies: Homo sapiens.
Another test concerns NCI-H1975. As to the kind of experiment: cells. The note with it: Homo sapiens.
For another test, the system named is H9. As to the kind of experiment: cells. The note with it: Homo sapiens.
Another test relates to BALL-1. Kind of test: cells. The note with it: Homo sapiens.
In the next test the test system is TI-73. Kind of test: cells. The following applies: Homo sapiens.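 Further: cell viability assay measuring how much compounds suppress growth of the cultured cell line.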
Another test deals with SKM-1. Kind of test: SANGER: Inhibition of human SKM-1 cell growth in a cell viability assay. The note with it: Homo sapiens, SKM-1.
A further test has as its system CRO-AP2. As to the kind of experiment: SANGER: Inhibition of human CRO-AP2 cell growth in a cell viability assay.
The next test relates to NCI-H2227. Kind of test: cells. The note with it: Homo sapiens.
A further test concerns CP67-MEL. Kind of test: SANGER: Inhibition of human CP67-MEL cell growth in a cell viability assay.
A further test deals with KP-N-RT-BM-1. Kind of test: SANGER: Inhibition of human KP-N-RT-BM-1 cell growth in a cell viability assay.

In ChEMBL document CHEMBL1201861, “Genomics of Drug Sensitity in Cancer screening data, Wellcome Trust Sanger Institute” one finds IC50 data, which are given here for 3 compounds.

By IC50 is commonly meant the midpoint of a concentration-inhibition curve. Low values mean greater potency, high ones weaker potency.

Description for A549: SANGER: Inhibition of human A549 cell growth in a cell viability assay.
Description for BALL-1: SANGER: Inhibition of human BALL-1 cell growth in a cell viability assay.
Description for BT-549: SANGER: Inhibition of human BT-549 cell growth in a cell viability assay.
Description for ECC10: SANGER: Inhibition of human ECC10 cell growth in a cell viability assay.
Description for H9: SANGER: Inhibition of human H9 cell growth in a cell viability assay.
Description for NBsusSR: SANGER: Inhibition of human NBsusSR cell growth in a cell viability assay.
Description for NCI-H1048: SANGER: Inhibition of human NCI-H1048 cell growth in a cell viability assay.
Description for NCI-H1975: SANGER: Inhibition of human NCI-H1975 cell growth in a cell viability assay.
Description for NCI-H2029: SANGER: Inhibition of human NCI-H2029 cell growth in a cell viability assay.
Description for NCI-H2227: SANGER: Inhibition of human NCI-H2227 cell growth in a cell viability assay.
Description for NCI-H2291: SANGER: Inhibition of human NCI-H2291 cell growth in a cell viability assay.
Description for SW 1116: SANGER: Inhibition of human SW1116 cell growth in a cell viability assay.
Description for SW900: SANGER: Inhibition of human SW900 cell growth in a cell viability assay.
Description for TI-73: SANGER: Inhibition of human TI-73 cell growth in a cell viability assay.
Description for ZR-75-30: SANGER: Inhibition of human ZR-75-30 cell growth in a cell viability assay.

Take `CN(NC(=O)CC(=O)NN(C)C(=S)c1ccccc1)C(=S)c1ccccc1` [ELESCLOMOL]: the IC50 with D-566MG is 15.2 nM; in the test on NCI-H1048, 18.4 nM; with NCI-H2291, above 200 nM; with ZR-75-30 it was 47.9 nM; in the test on A549, 19.6 nM; in the test on NBsusSR, 3.13 nM. Further, the IC50 is 62.1 nM in the test with SW900; above 200 nM in the test with ECC10; 15.8 nM in the test on BT-549; above 200 nM with SW 1116; above 200 nM in the test with NCI-H2029; above 200 nM in the test with NCI-H1975. Besides, the IC50 is 58.1 nM in the test on H9, above 200 nM in the test on BALL-1 and 15.2 nM in the test on TI-73.
Turning to `Nc1ccccc1NC(=O)c1ccc(CNC(=O)OCc2cccnc2)cc1` [ENTINOSTAT], the half-maximal inhibitory concentration (IC50) in the test on SKM-1 was above 5 µM; in the test with CRO-AP2, 169 nM; with NCI-H2227 it was 3.02 µM.
As to `Cc1ccc(NC(=O)c2ccc(CN3CCN(C)CC3)cc2)cc1Nc1nccc(-c2cccnc2)n1` [IMATINIB], the IC50 is above 2000 nM in the test with CP67-MEL, above 2 µM with SKM-1, above 2000 nM in the test on CRO-AP2 and above 2000 nM with KP-N-RT-BM-1.
